According to patent EP4600243A2, “NOVEL BICYCLIC HETEROCYCLYL COMPOUNDS AND USE THEREOF” (Jeil Pharmaceutical Co., Ltd., priority 2022, dated 2024):

These compounds were tested against T1, protein-protein interaction between SOS1 and KRAS G12C (Homo sapiens, UniProt Q07889) (assay: KRAS::SOS1 HTRF binding analysis (KRAS G12C/SOS1 binding kit)). Conditions: compound at 0.1 uM.
T1 construct: purchased Cisbio 64KRASG12PEG
T1 sequence (Q07889 1-1333): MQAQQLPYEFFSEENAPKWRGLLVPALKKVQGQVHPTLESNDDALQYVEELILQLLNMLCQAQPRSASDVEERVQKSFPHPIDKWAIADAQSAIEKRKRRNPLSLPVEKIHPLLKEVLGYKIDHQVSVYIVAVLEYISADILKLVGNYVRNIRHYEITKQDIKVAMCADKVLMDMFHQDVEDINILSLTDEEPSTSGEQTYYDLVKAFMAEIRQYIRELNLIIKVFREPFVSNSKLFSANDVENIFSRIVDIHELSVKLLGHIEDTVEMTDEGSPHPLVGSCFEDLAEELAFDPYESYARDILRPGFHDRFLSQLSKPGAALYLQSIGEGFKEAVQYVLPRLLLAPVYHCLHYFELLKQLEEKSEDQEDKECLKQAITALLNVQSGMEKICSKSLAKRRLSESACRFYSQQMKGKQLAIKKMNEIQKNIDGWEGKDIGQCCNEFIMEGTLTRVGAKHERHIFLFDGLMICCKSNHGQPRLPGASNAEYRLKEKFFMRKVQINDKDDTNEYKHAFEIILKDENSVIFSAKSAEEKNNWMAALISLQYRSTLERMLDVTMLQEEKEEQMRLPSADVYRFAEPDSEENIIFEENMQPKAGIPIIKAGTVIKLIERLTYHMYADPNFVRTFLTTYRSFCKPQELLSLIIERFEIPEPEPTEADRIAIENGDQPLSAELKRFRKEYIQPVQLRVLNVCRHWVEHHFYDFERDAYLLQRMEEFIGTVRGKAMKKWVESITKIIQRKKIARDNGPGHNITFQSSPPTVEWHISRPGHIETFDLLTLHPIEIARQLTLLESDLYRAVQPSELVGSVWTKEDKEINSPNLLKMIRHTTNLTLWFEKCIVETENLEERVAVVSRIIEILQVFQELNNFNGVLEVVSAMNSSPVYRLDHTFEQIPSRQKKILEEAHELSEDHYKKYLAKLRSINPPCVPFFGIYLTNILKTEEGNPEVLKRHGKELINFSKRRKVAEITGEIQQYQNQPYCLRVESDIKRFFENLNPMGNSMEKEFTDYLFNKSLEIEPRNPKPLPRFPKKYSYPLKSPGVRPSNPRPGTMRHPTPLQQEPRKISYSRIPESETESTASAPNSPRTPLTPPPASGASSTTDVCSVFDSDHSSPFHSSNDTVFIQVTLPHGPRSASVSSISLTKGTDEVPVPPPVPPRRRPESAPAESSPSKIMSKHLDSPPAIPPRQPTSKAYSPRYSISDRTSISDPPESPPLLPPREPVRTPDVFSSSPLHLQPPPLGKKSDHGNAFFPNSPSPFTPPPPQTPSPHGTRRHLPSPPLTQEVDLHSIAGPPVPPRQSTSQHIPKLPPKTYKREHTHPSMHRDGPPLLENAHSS
Description: 1-1. KRAS::SOS1 HTRF binding analysis
An SOS1 inhibitory ability of the example compounds of the present invention was confirmed by identifying the effect of inhibiting a protein-protein interaction between SOS1 and KRAS G12C of the compounds according to examples of the present invention.
Specifically, a KRAS G12C/SOS1 binding kit (64KRASG12PEG, Cisbio, France) was purchased and used. 2 µℓ of Tag1-KRAS G12C and 2 µℓ of GTP were premixed and dispensed 4 µl each into a 384 well plate (6007290, PerkinElmer, USA). 2 µℓ of the compound and 4 µℓ of Tag2-SOS1 were placed and then 10 µℓ of premixed Anti-Tag1 XL665 antibody and Anti-Tag2 Tb cryptate antibody was dispensed to each well. The plates were sealed and allowed to react at room temperature for one hour and 40 minutes, and then 665 nm wavelength and 620 nm wavelength were measured using a HTRF® compatible reader (Synergy H4, BioTeK, USA), and the ratio of receptor and donor emission signals for each well was calculated as 665 nm/620 nm×10^4.
(+++: more than 70 to 100% inhibition, ++: more than 40 to 70% inhibition, +: 0 to 40% inhibition) [Table 4]

Row | inhibition at 0.1 µM | Structure (SMILES)
1 | 70 to 100% | C[C@@H](Nc1cnnc2ccc(C3=CCN(C(=O)C4COC4)CC3)cc12)c1cccc(C(F)F)c1F [Example 60, (R)-(4-(4-(1-(3-(difluoromethyl)-2-fluorophenyl)ethylamino)cinnolin-6-yl)-5,6-dihydropyridin-1(2H)-yl)(oxetan-3-yl)methanone]
2 | 0 to 40% | C[C@@H](Nc1cnnc2ccc(C3=CCN(C(=O)C4CC4)CC3)cc12)c1cccc(C(F)F)c1F [Example 61, (R)-cyclopropyl(4-(4-(1-(3-(difluoromethyl)-2-fluorophenyl)ethylamino)cinnolin-6-yl)-5,6-dihydropyridin-1(2H)-yl)methanone]
3 | 40 to 70% | C[C@@H](Nc1cnnc2ccc(N3CCN(C(=O)C4CC4)CC3)cc12)c1cccc(C(F)F)c1F [Example 62, (R)-cyclopropyl(4-(4-(1-(3-(difluoromethyl)-2-fluorophenyl)ethylamino)cinnolin-6-yl)piperazin-1-yl)methanone]
4 | 70 to 100% | C[C@@H](Nc1cnnc2ccc(N3CCN(C(=O)[C@@H]4CCOC4)CC3)cc12)c1cccc(C(F)F)c1F [Example 64, (4-(4-((R)-1-(3-(difluoromethyl)-2-fluorophenyl)ethylamino)cinnolin-6-yl)piperazin-1-yl)((R)-tetrahydrofuran-3-yl)methanone]
5 | 40 to 70% | C[C@@H](Nc1cnnc2ccc(N3CCN(C(=O)[C@H]4CCOC4)CC3)cc12)c1cccc(C(F)F)c1F [Example 65, (4-(4-((R)-1-(3-(difluoromethyl)-2-fluorophenyl)ethylamino)cinnolin-6-yl)piperazin-1-yl)((S)-tetrahydrofuran-3-yl)methanone]
6 | 40 to 70% | C[C@@H](Nc1cnnc2ccc(N3CCC(NC(=O)C4COC4)CC3)cc12)c1cccc(C(F)F)c1F [Example 69, (R)-N-(1-(4-(1-(3-(difluoromethyl)-2-fluorophenyl)ethylamino)cinnolin-6-yl)piperidin-4-yl)oxetan-3-carboxamide]

The next lines start with the compound.

Row | Structure (SMILES) | inhibition at 0.1 µM
7 | C[C@@H](Nc1cnnc2ccc(C3=CCNCC3)cc12)c1cccc(C(F)F)c1F [Example 2, (R)-N-(1-(3-(difluoromethyl)-2-fluorophenyl)ethyl)-6-(1,2,3,6-tetrahydropyridin-4-yl)cinnolin-4-amine] | 40 to 70%
8 | C[C@@H](Nc1cnnc2ccc(N3CCN(C)CC3)cc12)c1cccc(C(F)F)c1F [Example 5, (R)-N-(1-(3-(difluoromethyl)-2-fluorophenyl)ethyl)-6-(4-methylpiperazin-1-yl)cinnolin-4-amine] | 40 to 70%
9 | C[C@@H](Nc1cnnc2ccc(N3CC4CC(C3)O4)cc12)c1cc(O)cc(C(F)F)c1 [Example 55, 3-((1R)-1-((6-(6-oxa-3-azabicyclo[3.1.1]heptan-3-yl)cinnolin-4-yl)amino)ethyl)-5-(difluoromethyl)phenol] | 0 to 40%
10 | C[C@@H](Nc1cnnc2ccc(N3CC4CC(C3)O4)cc12)c1cccc(F)c1F [Example 56, 6-(6-oxa-3-azabicyclo[3.1.1]heptan-3-yl)-N-((R)-1-(2,3-difluorophenyl)ethyl)cinnolin-4-amine] | 0 to 40%
11 | C[C@@H]1CN(c2ccc3nncc(N[C@H](C)c4cccc(C(F)F)c4F)c3c2)CCO1 [Example 57, N-((R)-1-(3-(difluoromethyl)-2-fluorophenyl)ethyl)-6-((R)-2-methylmorpholino)cinnolin-4-amine] | 0 to 40%
12 | C[C@H]1CN(c2ccc3nncc(N[C@H](C)c4cccc(C(F)F)c4F)c3c2)CCO1 [Example 59, N-((R)-1-(3-(difluoromethyl)-2-fluorophenyl)ethyl)-6-((S)-2-methylmorpholino)cinnolin-4-amine] | 0 to 40%
13 | C[C@@H](Nc1cnnc2ccc(N3CCN(C(=O)C4CCOCC4)CC3)cc12)c1cccc(C(F)F)c1F [Example 63, (R)-(4-(4-(1-(3-(difluoromethyl)-2-fluorophenyl)ethylamino)cinnolin-6-yl)piperazin-1-yl)(tetrahydro-2H-pyran-4-yl)methanone] | 40 to 70%

What follows are compounds tested against T2, EGFR kinase (Homo sapiens, UniProt P00533) (assay: EGFR kinase inhibitory analysis (ADP-Glo enzyme analysis system)). Conditions: ADP-Glo luminescence.
T2 construct: purchased Promega Corporation V3831
T2 sequence (P00533 25-1210): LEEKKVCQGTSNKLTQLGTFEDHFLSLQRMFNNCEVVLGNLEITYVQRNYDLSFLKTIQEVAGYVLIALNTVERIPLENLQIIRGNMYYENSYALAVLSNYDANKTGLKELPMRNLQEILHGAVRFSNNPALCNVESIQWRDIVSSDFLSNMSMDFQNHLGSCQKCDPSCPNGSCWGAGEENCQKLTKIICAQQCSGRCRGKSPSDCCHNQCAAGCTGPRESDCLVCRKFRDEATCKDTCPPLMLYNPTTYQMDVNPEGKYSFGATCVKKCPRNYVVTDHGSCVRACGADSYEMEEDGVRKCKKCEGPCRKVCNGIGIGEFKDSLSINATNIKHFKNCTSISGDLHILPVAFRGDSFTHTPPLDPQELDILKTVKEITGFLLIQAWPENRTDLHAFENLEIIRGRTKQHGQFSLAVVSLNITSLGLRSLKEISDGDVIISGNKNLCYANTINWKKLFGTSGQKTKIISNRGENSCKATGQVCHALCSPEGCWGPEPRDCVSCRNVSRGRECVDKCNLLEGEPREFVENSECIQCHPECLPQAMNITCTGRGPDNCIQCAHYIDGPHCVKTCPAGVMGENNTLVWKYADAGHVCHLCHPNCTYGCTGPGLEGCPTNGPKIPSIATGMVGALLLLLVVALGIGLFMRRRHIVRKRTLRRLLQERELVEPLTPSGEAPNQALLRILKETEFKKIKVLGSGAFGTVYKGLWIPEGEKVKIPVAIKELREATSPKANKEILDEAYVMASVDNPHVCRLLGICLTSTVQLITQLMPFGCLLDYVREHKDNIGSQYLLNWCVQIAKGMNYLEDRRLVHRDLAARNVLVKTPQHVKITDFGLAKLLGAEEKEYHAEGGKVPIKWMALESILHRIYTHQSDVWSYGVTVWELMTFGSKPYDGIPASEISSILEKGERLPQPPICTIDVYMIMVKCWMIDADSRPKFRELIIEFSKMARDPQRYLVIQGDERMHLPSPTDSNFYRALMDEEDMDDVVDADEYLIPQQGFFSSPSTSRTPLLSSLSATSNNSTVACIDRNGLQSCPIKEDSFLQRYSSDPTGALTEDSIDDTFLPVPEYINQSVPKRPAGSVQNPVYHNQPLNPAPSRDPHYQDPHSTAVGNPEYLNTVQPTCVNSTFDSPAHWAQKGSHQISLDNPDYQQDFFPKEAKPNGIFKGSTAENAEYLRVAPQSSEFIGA
Format: biochemical
Description: 1-2. EGFR kinase inhibitory analysis
Specifically, an ADP-Glo™ enzyme analysis system (V3831, Promega Corporation, USA) was purchased and used. […] The ADP-Glo™ reagent was added in an amount of 5 µℓ per well and allowed to react at room temperature for 40 minutes to stop the EGFR kinase reaction and to remove unused ATP. 10 µℓ of kinase detection reagent (phosphorylase detection reagent) was added and reacted at room temperature for 30 minutes to convert ADP to ATP and show ATP using luciferase and luciferin. Detection was performed using luminescence of an ELISA reader (Synergy H4, BioTek, USA).

Row | Structure (SMILES) | IC50
14 | C[C@@H](Nc1cnnc2ccc(C3=CCNCC3)cc12)c1cccc(C(F)F)c1F [Example 2, (R)-N-(1-(3-(difluoromethyl)-2-fluorophenyl)ethyl)-6-(1,2,3,6-tetrahydropyridin-4-yl)cinnolin-4-amine] | > 10 µM
15 | C[C@@H](Nc1cnnc2ccc(N3CCN(C)CC3)cc12)c1cccc(C(F)F)c1F [Example 5, (R)-N-(1-(3-(difluoromethyl)-2-fluorophenyl)ethyl)-6-(4-methylpiperazin-1-yl)cinnolin-4-amine] | > 10 µM
